Laboratory results published in BindingDB's records for patent US12384776 (Foghorn Therapeutics, 2025).

Biological target: T1, Bromodomain-containing protein 9 (Human, UniProt Q9H8M2)
T1 sequence (Q9H8M2 whole entry): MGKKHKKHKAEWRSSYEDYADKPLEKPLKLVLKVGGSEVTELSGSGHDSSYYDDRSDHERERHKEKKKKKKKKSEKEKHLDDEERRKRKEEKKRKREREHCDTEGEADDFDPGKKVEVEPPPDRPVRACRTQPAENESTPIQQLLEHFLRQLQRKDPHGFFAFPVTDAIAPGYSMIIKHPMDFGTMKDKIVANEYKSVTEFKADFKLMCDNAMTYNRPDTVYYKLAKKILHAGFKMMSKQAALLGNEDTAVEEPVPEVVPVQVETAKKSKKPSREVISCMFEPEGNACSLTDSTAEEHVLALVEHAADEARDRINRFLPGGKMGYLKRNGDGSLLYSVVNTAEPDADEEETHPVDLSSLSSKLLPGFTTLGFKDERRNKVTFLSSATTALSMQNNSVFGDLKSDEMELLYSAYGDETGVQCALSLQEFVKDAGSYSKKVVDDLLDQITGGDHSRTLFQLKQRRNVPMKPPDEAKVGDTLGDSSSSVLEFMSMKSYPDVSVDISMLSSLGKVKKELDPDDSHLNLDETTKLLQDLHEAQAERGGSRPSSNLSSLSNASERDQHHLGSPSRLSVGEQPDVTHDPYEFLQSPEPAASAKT
Assay: SYO1 BRD9 NanoLuc Degradation Assay
Details: read-out: IC50 (the source's name)
Method: A stable SYO-1 cell line expressing 3×FLAG-NLuc-BRD9 was generated. On day 0 cells were seeded in 30 μL media into each well of 384-well cell culture plates. The seeding density was 8000 cells/well. On day 1, cells were treated with 30 nL DMSO or 30 nL of 3-fold serially DMSO-diluted compounds (10 points in duplicates with 1 μM as final top dose). Subsequently plates were incubated for 6 hours in a standard tissue culture incubator and equilibrated at room temperature for 15 minutes. Nanoluciferase activity was measured by adding 15 μL of freshly prepared Nano-Glo Luciferase Assay Reagent (Promega N1130), shaking the plates for 10 minutes and reading the bioluminescence using an EnVision reader.

Row | DC50 [µM] | Compound
1 | > 0.01 | COc1cc(-c2cn(C)c(=O)c3c2CCN(C(=O)NCCOCCOCCNc2cccc4c2C(=O)N(C2CCC(=O)NC2=O)C4=O)C3)cc(OC)c1CN(C)C (stereo unspecified) [US12384776, Compound D12]
2 | < 0.01 | CNC(=O)N1CCc2c(-c3cc(OC)c(CN4CCN(CCC5CCN(c6ccc7c(c6)C(=O)N(C6CCC(=O)NC6=O)C7=O)CC5)CC4C(F)(F)F)c(OC)c3)cn(C)c(=O)c2C1 (stereo unspecified) [US12384776, Compound D97]
3 | < 0.01 | CNC(=O)N1CCc2c(-c3cc(OC)c(CN4CCN(CCC5CCN(c6ccc7c(c6)C(=O)N(C6CCC(=O)NC6=O)C7=O)CC5)C(C)(C)C4)c(OC)c3)cn(C)c(=O)c2C1 (stereo unspecified) [US12384776, Compound D101]
4 | < 0.01 | CNC(=O)N1CCc2c(-c3cc(OC)c(CN4CC5(CC(C#Cc6ccc7c(c6)C(=O)N(C6CCC(=O)NC6=O)C7=O)C5)C4)c(OC)c3)cn(C)c(=O)c2C1 (stereo unspecified) [US12384776, Compound D133]
5 | < 0.01 | CNC(=O)N1CCc2c(-c3cc(OC)c(CN4CCC5(CC4)CC(C#Cc4ccc6c(c4)C(=O)N(C4CCC(=O)NC4=O)C6=O)C5)c(OC)c3)cn(C)c(=O)c2C1 (stereo unspecified) [US12384776, Compound D134]
6 | < 0.01 | CNC(=O)N1CCc2c(-c3cc(OC)c(CN4CCC5(CC(C#Cc6ccc7c(c6)C(=O)N(C6CCC(=O)NC6=O)C7=O)C5)C4)c(OC)c3)cn(C)c(=O)c2C1 (stereo unspecified) [US12384776, Compound D135]
7 | < 0.01 | CNC(=O)N1CCc2c(-c3cc(OC)c(CN4CCC5C4CN5c4ccc5c(c4)C(=O)N(C4CCC(=O)NC4=O)C5=O)c(OC)c3)cn(C)c(=O)c2C1 (stereo unspecified) [US12384776, Compound D157]
8 | < 0.01 | CNC(=O)N1CCc2c(-c3cc(OC)c(CN4CCC5(CC4)CN(c4ccc6c(c4)C(=O)N(C4CCC(=O)NC4=O)C6=O)C5)c(OC)c3)cn(C)c(=O)c2C1 (stereo unspecified) [US12384776, Compound D159]
9 | < 0.01 | CNC(=O)N1CCc2c(-c3cc(OC)c(CN4CC5(CCN(c6ccc7c(c6)C(=O)N(C6CCC(=O)NC6=O)C7=O)CC5)C4)c(OC)c3)cn(C)c(=O)c2C1 (stereo unspecified) [US12384776, Compound D161]
10 | < 0.01 | CNC(=O)N1CCc2c(-c3cc(OC)c(CN4CCC5(CCN(c6ccc7c(c6)C(=O)N(C6CCC(=O)NC6=O)C7=O)C5)C4)c(OC)c3)cn(C)c(=O)c2C1 (stereo unspecified) [US12384776, Compound D162]
11 | < 0.01 | CNC(=O)N1CCc2c(-c3cc(OC)c(CN4CCC5(CC4)CCN(c4ccc6c(c4)C(=O)N(C4CCC(=O)NC4=O)C6=O)C5)c(OC)c3)cn(C)c(=O)c2C1 (stereo unspecified) [US12384776, Compound D163]
12 | < 0.01 | CNC(=O)N1CCc2c(-c3cc(OC)c(CN4CCN(C5CN(c6ccc7c(c6)C(=O)N(C6CCC(=O)NC6=O)C7=O)C5)CC4)c(OC)c3)cn(C)c(=O)c2C1 (stereo unspecified) [US12384776, Compound D164]
13 | < 0.01 | CNC(=O)N1CCc2c(-c3cc(OC)c(CN4CCC5(C4)CN(c4ccc6c(c4)C(=O)N(C4CCC(=O)NC4=O)C6=O)C5)c(OC)c3)cn(C)c(=O)c2C1 (stereo unspecified) [US12384776, Compound D165]
14 | < 0.01 | CNC(=O)N1CCc2c(-c3cc(OC)c(CN4CCC5CN(c6ccc7c(c6)C(=O)N(C6CCC(=O)NC6=O)C7=O)C5C4)c(OC)c3)cn(C)c(=O)c2C1 (stereo unspecified) [US12384776, Compound D166]
15 | > 0.01 | COc1cc(-c2cn(C)c(=O)c3c2CCN(C(=O)NC2CCC24CCN(CCOc2ccc5c(c2)C(=O)N(C2CCC(=O)NC2=O)C5=O)CC4)C3)cc(OC)c1CN(C)C (stereo unspecified) [US12384776, Compound D239]
16 | < 0.01 | CNC(=O)N1C=Cc2c(-c3cc(OC)c(CN4CCC(CN5CCC6(CC5)CN(c5ccc7c(c5)C(=O)N(C5CCC(=O)NC5=O)C7)C6)C(F)(F)C4)c(OC)c3)cn(C)c(=O)c2C1 (stereo unspecified) [US12384776, Compound D335]
